Results taken from ChEMBL document CHEMBL1697781, “Assessment of the health effects of chemicals in humans: II. Construction of an adverse effects database for QSAR modeling” (Curr Drug Discov Technol, 2004).

Columns and labels:
Conditions in all cases: human; call rule not given here
[1] = test system: Hepatotoxicity; test: FDA HLAED, serum glutamic pyruvic transaminase (SGPT) increase
[2] = test system: Hepatotoxicity; test: FDA HLAED, gamma-glutamyl transferase (GGT) increase
[3] = test system: Hepatotoxicity; test: FDA HLAED, liver enzyme composite activity
[4] = test system: Hepatotoxicity; test: FDA HLAED, lactate dehydrogenase (LDH) increase
[5] = test system: Hepatotoxicity; test: FDA HLAED, alkaline phosphatase increase
[6] = test system: Hepatotoxicity; test: FDA HLAED, serum glutamic oxaloacetic transaminase (SGOT) increase
Wherever GGT Increase - Index Value is given: reference of the scale not given here.
Wherever LDH Increase - Index Value is given: reference of the scale not given here.

Molecule | SGPT Increase - Activity Score [1] | SGPT Increase - Index Value [1] | SGPT Increase - Number of Reports [1] | GGT Increase - Activity Score [2] | GGT Increase - Index Value [2] | GGT Increase - Number of Reports [2] | Composite Activity - Active [3] | Composite Activity - Marginal [3] | Composite Activity - Score [3] | LDH Increase - Activity Score [4] | LDH Increase - Index Value [4] | LDH Increase - Number of Reports [4] | Alkaline Phosphatase Increase - Activity Score [5] | Alkaline Phosphatase Increase - Index Value [5] | Alkaline Phosphatase Increase - Number of Reports [5] | SGOT Increase - Activity Score [6] | SGOT Increase - Index Value [6] | SGOT Increase - Number of Reports [6] | further results
C[C@H](CCC(=O)O)[C@H]1CC[C@H]2[C@@H]3[C@@H](O)C[C@@H]4C[C@H](O)CC[C@]4(C)[C@H]3CC[C@]12C [URSODIOL] | Inactive | 4.8 | < 4 | Inactive | 4.8 | < 4 | 2 | 0 | Active | Inactive | 4.8 | < 4 | Active | 14.5 | >= 4 | Active | 9.7 | >= 4 | 
CC(C)[C@H](N)C(=O)OCCOCn1cnc2c(=O)[nH]c(N)nc21 [VALACYCLOVIR] | Inactive | No Shipping Units | < 4 | Inactive | 0 | < 4 | 0 | 0 | Inactive | Inactive | 0 | < 4 | Inactive | No Shipping Units | < 4 | Inactive | No Shipping Units | < 4 | 
CC(=O)O[C@H]1C[C@@H]2CC[C@@H]3[C@H](CC[C@@]4(C)[C@H]3C[C@H]([N+]3(C)CCCCC3)[C@@H]4OC(C)=O)[C@@]2(C)C[C@@H]1N1CCCCC1.[Br-] [VECURONIUM BROMIDE] | Inactive | 1 | < 4 | Inactive | 0 | < 4 | 0 | 0 | Inactive | Inactive | 1 | < 4 | Inactive | 0 | < 4 | Inactive | 1 | < 4 | 
COc1ccc(C(CN(C)C)C2(O)CCCCC2)cc1 (stereo unspecified) [VENLAFAXINE] | Inactive | 2.3 | >= 4 | Inactive | 0.9 | >= 4 | 0 | 0 | Inactive | Inactive | 0.7 | >= 4 | Inactive | 1.3 | >= 4 | Inactive | 2.7 | >= 4 | 
CCC1=C[C@@H]2CN(C1)Cc1c([nH]c3ccccc13)[C@@](C(=O)OC)(c1cc3c(cc1OC)N(C)[C@H]1[C@@](O)(C(=O)OC)[C@H](OC(C)=O)[C@]4(CC)C=CCN5CC[C@]31[C@@H]54)C2 [VINORELBINE] | Inactive | 1.9 | < 4 | Inactive | 0.9 | < 4 | 1 | 0 | Inactive | Active | 4.7 | >= 4 | Inactive | 2.8 | < 4 | Inactive | 0.9 | < 4 | 
COc1cc(C(=O)NS(=O)(=O)c2ccccc2C)ccc1Cc1cn(C)c2ccc(NC(=O)OC3CCCC3)cc12 [ZAFIRLUKAST] | Active | 9.5 | >= 4 | Inactive | 0.5 | < 4 | 2 | 1 | Active | Marginally Active | 3.7 | >= 4 | Inactive | 2.6 | >= 4 | Active | 10.1 | >= 4 | 
Nc1ccn([C@H]2CC[C@@H](CO)O2)c(=O)n1 [ZALCITABINE] | Inactive | 2.9 | < 4 | Inactive | 1.4 | < 4 |  |  |  | Inactive | 1.4 | < 4 | Inactive | 2.9 | < 4 | Active | 5.7 | >= 4 | Composite Activity - Active ([3]; Liver): 1; Composite Activity - Marginal ([3]; Liver): 0; Composite Activity - Score ([3]; Liver): Inactive
Cc1cn([C@H]2C[C@H](N=[N+]=[N-])[C@@H](CO)O2)c(=O)[nH]c1=O [ZIDOVUDINE] | Active | 4.8 | >= 4 | Inactive | 0.9 | < 4 | 4 | 0 | Active | Active | 5.7 | >= 4 | Active | 5.1 | >= 4 | Active | 12.7 | >= 4 | 
CC(c1cc2ccccc2s1)N(O)C(N)=O (stereo unspecified) [ZILEUTON] | Active | 65.3 | >= 4 | Inactive | 5.9 | < 4 | 3 | 0 | Active | Inactive | 11.9 | < 4 | Active | 29.7 | >= 4 | Active | 47.5 | >= 4 | 
Cc1ccc(-c2nc3ccc(C)cn3c2CC(=O)N(C)C)cc1 [ZOLPIDEM] | Marginally Active | 3.9 | >= 4 | Marginally Active | 3 | >= 4 | 0 | 4 | Marginally Active | Inactive | 0.7 | >= 4 | Marginally Active | 3 | >= 4 | Marginally Active | 3.8 | >= 4 | 
Cc1cc(CC(=O)O)n(C)c1C(=O)c1ccc(Cl)cc1 [ZOMEPIRAC] | Inactive | 0.7 | >= 4 | Inactive | 0 | < 4 | 0 | 0 | Inactive | Inactive | 0.7 | >= 4 | Inactive | 1.1 | >= 4 | Inactive | 1.1 | >= 4 | 
NYSTATIN | Inactive | 0 | < 4 | Inactive | 0 | < 4 | 0 | 0 | Inactive | Inactive | 0 | < 4 | Inactive | 0.3 | < 4 | Inactive | 0 | < 4 | 
